Measurements from patent US10987339B2, “Uses of butylidenephthalide” (EVERFRONT BIOTECH INC., priority 2015, dated 2021).

Key:
[1] = system: NHOKs (normal human oral keratinocytes); assay: MTT assay, viability of NHOKs; assay type: cell-based; conditions: 24 hours
Experimental: (§1) To investigate the effect of BP on inhibiting the growth of cancer stem cells, NHOKs (normal human oral keratinocytes) and HNC-TIC (head and neck cancer-derived tumor initiating cell)-like oral stem cells (i.e., ALDH1^+CD44^+-1 cell line or ALDH1^+CD44^+-2 cell line) were treated with different concentrations (0, 25, 50 and 100 μg/ml) of BP for 24 hours, and then, an MTT assay was utilized to analyzed the viabilities of NHOKs and HNC-TIC-like oral stem cells (i.e., ALDH1^+CD44^+-1 cell line and ALDH1^+CD44^+-2 cell line).

[2] = system: HNC-TIC-like oral stem cells (ALDH1+CD44+-1 cell line and ALDH1+CD44+-2 cell line); assay: MTT assay, viability of HNC-TIC-like oral stem cells; assay type: cell-based; conditions: ALDH1+CD44+-1 and ALDH1+CD44+-2 cell lines, 0, 25, 50 and 100 μg/ml BP, 24 hours, FIG. 1
Experimental: as §1

Sox-2 [3] = assay: Western blotting, Sox-2 expression in MiaPaCa-2 cells; assay type: cell-based; conditions: MiaPaCa-2 cells, 0, 12.5, 25 and 50 μg/ml BP, 24 hours, FIG. 2
Experimental: (§2) It has been known that CD44, CD133, Sox-2 (sex-determining region Y protein (SRY)-related high-mobility group box 2) and Oct4 (octamerbinding transcription factor 4) proteins all are stemness-maintenance markers of cancer stem cells and participate in the regulation of the self-renewal and differentiation of cancer stem cells. MiaPaCa-2 cell line (i.e., a cell line of pancreatic cancer cells) was treated with different concentrations (0, 12.5, 25, and 50 μg/ml) of BP for 24 hours, and then, proteins were extracted from the cells to conduct Western blotting to determine the expressions of Sox-2, CD133 and CD44 proteins in the BP-treated MiaPaCa-2 cells. Yet another. HNC-TIC-like oral stem cells (i.e., ALDH1^+CD44^+-1 cell line or ALDH1^+CD44^+-2 cell line) were treated with different concentrations (0, 12.5, 25, and 50 μg/ml) of BP for 24 hours, and then, proteins were extracted from the cells to conduct Western blotting to determine the expressions of Sox-2 and Oct4 proteins in the BP-treated HNC-TIC-like oral stem cells (i.e., ALDH1^+CD44^+-1 cell line and ALDH1^+CD44^+-2 cell line).

CD133 = assay: Western blotting, CD133 expression in MiaPaCa-2 cells; assay type: cell-based; conditions: MiaPaCa-2 cells, 0, 12.5, 25 and 50 μg/ml BP, 24 hours, FIG. 2
Experimental: as §2

CD44 = assay: Western blotting, CD44 expression in MiaPaCa-2 cells; assay type: cell-based; conditions: MiaPaCa-2 cells, 0, 12.5, 25 and 50 μg/ml BP, 24 hours, FIG. 2
Experimental: as §2

Sox-2 [4] = assay: Western blotting, Sox-2 expression in HNC-TIC-like oral stem cells; assay type: cell-based; conditions: ALDH1+CD44+-1 and ALDH1+CD44+-2 cell lines, 0, 12.5, 25 and 50 μg/ml BP, 24 hours, FIG. 3
Experimental: as §2

Oct4 = assay: Western blotting, Oct4 expression in HNC-TIC-like oral stem cells; assay type: cell-based; conditions: ALDH1+CD44+-1 and ALDH1+CD44+-2 cell lines, 0, 12.5, 25 and 50 μg/ml BP, 24 hours, FIG. 3
Experimental: as §2

ALDH = assay: ALDEFLUOR flow cytometry analysis of ALDH activity; assay type: cell-based; conditions: group without DEAB addition, 0, 25 and 50 μg/ml BP, 24 hours, FIG. 4
Experimental: ALDH protein is also an important stemness-maintenance marker of cancer stem cells and participates in the regulation of the self-renewal and differentiation of cancer stem cells. HNC-TIC-like oral stem cells (i.e., ALDH1^+CD44^+-1 cell line or ALDH1^+CD44^+-2 cell line) were treated with different concentrations (0, 25 and 50 μg/ml) of BP for 24 hours, and then, 1×10^5 cells obtained from each group were separately suspended in 50 μl of a stem cell detection kit (i.e., ALDEEFLUOR array kit, purchased from […] Technologies Inc., Vancouver, Canada) buffer and the cell suspension of each group was separately added with ALDEFLUOR to a final concentration of 1 μM. Thereafter, a sample of each group was stained by […] and then analyzed by flow cytometry analysis to determine the ALDH activity of HNC-TIC-like oral stem cells (i.e., ALDH1^+CD44^+-1 cell line and ALDH1^+CD44^+-2 cell line).
The above experimental procedure was repeated, but the cell suspension of each group was further added with N,N-diethylaminobenzaldehyde (DEAB, i.e., an inhibitor of ALDH) to a final concentration of 150 μM of DEAB separately.

[5] = system: HNC-TIC-like oral stem cells (ALDH1+CD44+-1 cell line or ALDH1+CD44+-2 cell line); assay: Transwell invasion assay; assay type: cell-based
Text: In this research, the effect of BP on inhibiting the migration and invasion of cancer stem cells was investigated by a transwell invasion assay system (i.e., Transwell® system, purchased from Corning, UK) with a polycarbonate filter membrane of 8-μm pore size (purchased from Corning, UK). First, the polycarbonate filter membrane was coated with Matrigel™ (purchased from BD Pharmingen, USA), and then, the coated membrane was placed in the […] of the transwell invasion assay system. Then, the lower chamber was filled with 10% serum-containing medium. On the other hand, HNC-TIC-like oral stem cells (i.e., ALDH1^+CD44^+-1 cell line or ALDH1^+CD44^+-2 cell line) were treated with different concentrations (0, 25 and 50 μg/ml) of BP for 24 hours, and then, the treated cells of each group was cultured in the upper chamber which was filled with serum-free medium, at a cell density of […] cells/100 μl for 24 hours. […] The invasion cancer cells of each group were counted and photographed over five visual fields of the membrane with the use of a 100-fold magnification under a microscope. The relative invasion ability of cells of each experimental group was calculated based on the result of the group treated with 0 μg/ml of BP.

[6] = system: HNC-TIC-like oral stem cells (ALDH1+CD44+-1 cell line or ALDH1+CD44+-2 cell line); assay: Soft agar colony formation assay; assay type: cell-based
Experimental: In this research, a soft agar colony formation assay was used to investigate the effect of BP on inhibiting the tumor initiating activity of cancer stem cells. First, HNC-TIC-like oral stem cells (i.e., ALDH1^+CD44^+-1 cell line or ALDH1^+CD44^+-2 cell line) were treated with different concentrations (0, 25 and 50 μg/ml) of BP for 24 hours, and then, the treated cells of each group was separately seeded in the top agar [containing DMEM (Dulbecco's Modified Eagle's Medium medium), 10% (v/v) Fetal Calf Serum (FCS) and 0.3% (w/v) agar] (purchased from Sigma-Aldrich) at an initial cell number of 2×10^4. On the other hand, a six-well culture dish was coated with the bottom agar [containing DMEM, 10% (v/v) FCS and 0.6% (w/v) agar](purchased from Sigma-Aldrich), 2 ml for each well. After the bottom agar was solidified, each group of the top agar (containing oral cancer stem cells) was respectively added onto the bottom agar in different wells of the dish, 2 ml for each well. […] Lastly, the bottom agar was stained with 0.005% crystal violet, the number of colonies (with a diameter ≥100 μm) was counted over five fields per well with the use of a microscope, and those fields were photographed. The relative colony-forming ability of cells of each experimental group was calculated based on the result of the group treated with 0 μg/ml of BP.

[7] = system: HNC-TIC-like oral stem cells stably transfected with GFP-tagged constructs; assay: Tumor initiating activity animal experiment (subcutaneous GFP-tagged HNC-TIC-like oral stem cells); assay type: in vivo, BALB/c nu/nu mice
Experimental: In this research, the effect of BP on inhibiting the tumor initiating activity of cancer stem cells was further investigated by animal experiments. First, 5-6 weeks old BALB/c nu/nu mice (weight 18-22 g) were bred under the same condition for 4 weeks. Then, HNC-TIC-like oral stem cells stably transfected with GFP-tagged constructs were injected (1×10^4 cells/0.1 mL/mouse) subcutaneously into the axilla of mice. After tumors reached 100 mm^3, mice were grouped into one control group and two experimental groups (three groups in total, n=3 per group). Then, one experimental group was injected daily with 100 mg/kg of BP for 6 days and another experimental group was injected daily with 200 mg/kg of BP for 6 days. The control group was injected daily with a vehicle (without BP) for 6 days. Ten days after the injection of BP or vehicle, the length and width were measured every 2 days (22 days in total), and then, the average tumor volume was calculated according to the following Formula 1. At the same time, the GFP signal (i.e., green fluorescence) of each group was detected and photographed by the IVIS Imaging system. The GFP intensity of each group was analyzed by Image-Pro Plus software. [length×width^2]/2 (unit: mm^3) Formula 1: […]

For `CCCC=C1OC(=O)c2ccccc21` [BP, butylidenephthalide], the “viability of NHOKs” value ([1]; 0, 25, 50 and 100 μg/ml BP, MTT, FIG. 1) was “did not decrease along with the increment in the concentration of BP”, the “cytotoxicity to normal cells” value ([1]; NHOKs, up to 100 μg/ml BP) was “no cytotoxicity to normal cells” and the “viability of HNC-TIC-like oral stem cells” value [2] was “decreased along with the increment in the concentration of BP”. For the same compound, the “expression of Sox-2 protein” value (Sox-2 [3]) was “significantly decreased along with the increment in the concentration of BP”, the “expression of CD133 protein” value (CD133) was “significantly decreased along with the increment in the concentration of BP” and the “expression of CD44 protein” value (CD44) was “significantly decreased along with the increment in the concentration of BP”. For the same compound, the “expression of Sox-2 protein” value (Sox-2 [4]) was “significantly decreased along with the increment in the concentration of BP”, the “expression of Oct4 protein” value (Oct4) was “significantly decreased along with the increment in the concentration of BP” and the “number of live cells with ALDH activity” value (ALDH) was “increased along with the increment in the concentration of BP”. The “number of cells on the polycarbonate filter membrane” value ([5]; 0, 25 and 50 μg/ml BP for 24 hours, then 24 hours transwell, FIG. 5A) was “significantly reduced along with the increment in the concentration of BP”, the relative invasion ability ([5]; 0, 25 and 50 μg/ml BP, relative to 0 μg/ml group, FIG. 5B) was “decreased along with the increment in the concentration of BP” and the “number of colonies in the bottom agar” value ([6]; 0, 25 and 50 μg/ml BP for 24 hours, 4 weeks culture, FIG. 6A) was “significantly decreased along with the increment in the concentration of BP”. For the same compound, the relative colony-forming ability ([6]; 0, 25 and 50 μg/ml BP, relative to 0 μg/ml group, FIG. 6B) was “decreased along with the increment in the concentration of BP”, the tumor volume ([7]; 100 mg/kg and 200 mg/kg BP groups, daily for 6 days, compared to control group, FIG. 7B) was “decreased over a period of time” and the GFP intensity ([7]; 100 mg/kg and 200 mg/kg BP groups, daily for 6 days, compared to control group, FIG. 7C, 7D) was “significantly decreased”. The “body weight of mice” value ([7]; 100 mg/kg or 200 mg/kg BP injected daily for 6 days, FIG. 7A) was “didn't change significantly”.
